In patent US6410790B1, “3-amin3-arylpropan-1-ol compounds, their preparation and use” (priority 1999, dated 2002):

What was measured:
[1] = system: phenylquinone-induced writhing reaction; assay: phenylquinone-induced writhing test in mice; format: in vivo; conditions: male NMRI mice, phenylquinone i.p. 10 minutes later; for inhibition in vivo at 10 mg/kg: Mus musculus, iv, 10 min, 10 mg/kg intravenously
Description: Analgesic Effect in the Writhing Test in Mice
The analgesic effect was investigated in the phenylquinone-induced writhing test in mice (as modified by I. C. Hendershot and J. Forsaith (1959) J. Pharmacol. Exp. Ther. 125, 237-240). Male NMRI mice weighing 25 to 30 g were used for the test. Groups of 10 animals each received by intraperitoineal application, for each substance dose, 0.3 ml/mouse of a 0.02% aqueous solution of phenylquinone (phenylbenzoquinone, Sigma Company, Deisenhofen; solution prepared with addition of 5% of ethanol and kept in a water bath at 45° C.) 10 minutes after intravenous administration of the test substances. The animals were placed individually in observation cages. The number of pain-induced stretching movements (so-called writhing reactions=straightening of the body together with stretching of the rear extremities) was measured by means of a push-button counter 5 to 20 minutes after administration of the phenylquinone. Animals that had received only physiological saline solution served as controls. All substances were tested in the standard dose of 10 mg/kg. The percentage inhibition (% inhibition) of the writhing reaction produced by a substance was calculated according to the following formula: [formula]

NA transporter = biological target: T1, NA transporter (Rattus norvegicus, UniProt Q63380); assay: synaptosomal noradrenaline uptake inhibition (NA uptake inhibition); format: biochemical; conditions: for inhibition at 1 µM: read-out: NA Uptake Inhibition at 1 μM, 1 μM in the assay, synaptosomes from rat hypothalamus; for NA Uptake Inhibition at 1 μM: 1 μM in the assay, synaptosomes from rat hypothalamus
T1 construct: synaptosomes are isolated fresh from rat brains; from tissue; host or cells: rat hypothalamus synaptosomes (P2 fraction)
T1 sequence (Q63380 1-617): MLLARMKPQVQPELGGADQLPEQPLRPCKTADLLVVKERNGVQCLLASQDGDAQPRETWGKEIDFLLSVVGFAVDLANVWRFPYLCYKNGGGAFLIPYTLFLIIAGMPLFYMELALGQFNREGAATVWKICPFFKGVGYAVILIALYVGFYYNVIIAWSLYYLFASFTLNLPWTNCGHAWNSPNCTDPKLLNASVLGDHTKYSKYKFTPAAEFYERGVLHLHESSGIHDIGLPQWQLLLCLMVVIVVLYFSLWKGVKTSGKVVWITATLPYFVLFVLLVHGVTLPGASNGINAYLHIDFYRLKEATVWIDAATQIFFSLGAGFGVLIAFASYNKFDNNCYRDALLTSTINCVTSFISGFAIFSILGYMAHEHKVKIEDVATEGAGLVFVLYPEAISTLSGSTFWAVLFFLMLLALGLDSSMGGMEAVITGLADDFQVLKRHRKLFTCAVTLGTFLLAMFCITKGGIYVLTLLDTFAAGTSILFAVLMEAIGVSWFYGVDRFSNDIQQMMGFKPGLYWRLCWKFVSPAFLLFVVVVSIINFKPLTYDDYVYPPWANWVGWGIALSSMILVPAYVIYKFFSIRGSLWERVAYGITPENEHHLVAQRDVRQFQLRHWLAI
Description: In order to carry out these in vitro studies, synaptosomes are isolated fresh from rat brains. In each case a so-called “P2” fraction is used, which is prepared according to the protocol of Gray and Whittaker (E. G. Gray and V. P. Whittaker (1962) J. Anat. 76, 79-88).
(in each case N=4, i.e. mean values±SEM from 4 independent series of experiments that were carried out in the form of triple parallel experiments).
(§1) For this purpose IC50 values are obtained, which can be converted to inhibitor constants (Ki) according to the “Cheng-Prusoff equation” (Y. C. Clieng and W. H. Prusoff (1973) Biochem. Pharmacol. 22, 3099-3108). The IC50 values were obtained by means of the computer program “Figure P” (version 6.0, Biosoft, Cambridge, England). Km values were calculated according to Lineweaver and Burk (H. Lineweaver and D. Burk (1934) J. Am. Chem. Soc. 56, 658-666). The “Ligand” computer program (version 4, Biosoft, England) was used to obtain Ken values.

[2] = system: benzothiazepine binding site of the L-type calcium channel; assay: Diltiazem binding, L calcium channel; design: species or system rat; conditions: 10 μM, percentage inhibition, [3H]-cis-(+)-diltiazem 5 nM, rat cerebral cortex membranes
Description: Binding Investigations in the L Calcium Channel
Benzothiazepine Binding Site (Diltiazem Binding)
The biological membrane material was isolated from the rat cerebral cortex. [^3H]-cis-(+)-diltiazem (5 nM in the assay) was used as ligand. The material was incubated for 20 minutes at 25° C. The radioactivity that is measured in the presence of (±)-diltiazem (10^−6 M in the assay) is defined as non-specific binding. After completion of incubation the non-bound fraction of the radioactive ligand is separated by means of a filtration process using Whatman Glasfiber GF/B membranes. The membranes are washed and the radioactivity is then measured using a β-counter. The method is based on the details published by Schoemaker and Langer (H. Schoemaker and S. Z. Langer (1985) Eur. J. Pharmacol. 111, 273-277).
as §1

[3] = system: binding site 2 of the sodium channel; assay: BTX binding, sodium channel; conditions: 10 μM, percentage inhibition, [3H]-batrachotoxin A20 α-benzoate 10 nM, rat cerebral cortex synaptosomes
Description: Binding Investigations in the Sodium Channel
Binding Site 2 (BTX Binding)
The binding site 2 of the sodium channel is the so-called batrachotoxin (BTX) binding site. [^3H]-batrachlotoxin A20 α-benzoate (10 nM in the assay) was used as ligand. These ion channel particles (synaptosomes) were concentrated from rat cerebral cortex according to the procedure of Gray and Whittaker (E. G. Gray and V. P. Whittaker (1962) J. Anat. 76, 79-88). The radioactivity that is measured in the presence of veratridine (0.3 mM in the assay) is defined as non-specific binding. The material was incubated at 37° C. for 120 minutes. The assay conditions are carried out according to the protocol published by Pauwels, Leysen and Laduron (P. J. Pauwels, J. E. Leysen and P. M. Laduron (1986) Eur. J. Pharmacol. 124, 291-298).
(N=3, i.e. mean values±SEM from 3 independent series of experiments that were carried out in the form of triple parallel experiments).
as §1

Compound | inhibition in vivo at 10 mg/kg [1] | inhibition at 1 µM (NA transporter) | Diltiazem Binding at 10 μM [2] | BTX Binding at 10 μM [3] | % Inhibition of the writhing reaction at 10 mg/kg intravenously [1] | NA Uptake Inhibition at 1 μM (NA transporter) | NA Uptake Inhibition at 1 μM (NA transporter; hydrochloride) | Diltiazem Binding at 10 μM ([2]; hydrochloride) | BTX Binding at 10 μM ([3]; hydrochloride)
CN(C)C(c1ccccc1)C1CCCCC1(O)Cc1ccc(F)cc1F.Cl (centres unmarked) [Example 50, 1-(2,4-difluorobenzyl)-2-(dimethylaminophenylmethyl)cyclohexanol, hydrochloride] | 85% | 100% | 93% | 95% |  |  |  |  | 
CN(C)C(c1ccc(Cl)cc1)C1CCCCC1(O)Cc1cccc(C(F)(F)F)c1.Cl (centres unmarked) [Example 63, 2-[(4-chlorophenyl)dimethylaminomethyl]-1-(3-trifluoromethylbenzyl)cyclohexanol, hydrochloride] | 86% | 94% | 95% | 99% |  |  |  |  | 
CN(C)C(c1ccccc1)C1CCCCC1(O)c1ccc(Br)cc1.Cl (centres unmarked) [Example 73] |  |  | 89% | 93% | 75% | 61% |  |  | 
CN(C)C(c1ccccc1)C1CCCCC1(O)Cc1ccc(Cl)cc1.Cl (centres unmarked) [Example 23, 1-(4-chlorobenzyl)-2-(dimethylaminophenylmethyl)-1-cyclohexanol, hydrochloride] | 100% | 99% | 100% | 94% |  |  |  |  | 
CN(C)C(c1ccc(Cl)c(Cl)c1)C1CCCCC1(O)CCc1ccccc1.Cl (centres unmarked) [Example 40, 2-[(3,4-dichlorophenyl)dimethylaminomethyl]-1-phenethylcyclohexanol, hydrochloride] | 72% | 58% | 86% | 98% |  |  |  |  | 
CN(C)C(c1ccccc1)C1CCCCC1(O)C1CCCCC1.Cl (centres unmarked) [Example 48, 2-(dimethylaminophenylmethyl)bicyclohexyl-1-ol, hydrochloride] | 94% | 29% | 86% | 96% |  |  |  |  | 
CN(C)C(c1ccccc1)C1CCCCC1(O)Cc1cccc(Cl)c1.Cl (centres unmarked) [Example 32, 1-(3-chlorobenzyl)-2-(dimethylaminophenylmethyl)cyclohexanol, hydrochloride] | 100% | 100% | 98% | 94% |  |  |  |  | 
CN(C)C(c1ccccc1)(c1cccc(Oc2ccccc2)c1)C1CCCCC1(O)Cc1ccccc1.Cl (centres unmarked) [Example 34, 1-benzyl-2-[dimethylaminophenyl-(3-phenoxyphenyl)methyl]cyclohexanol, hydrochloride] | 99% | 96% | 100% | 100% |  |  |  |  | 
CN(C)C(c1cccc(Cl)c1)C1CCCCC1(O)Cc1ccc(C(C)(C)C)cc1.Cl (centres unmarked) [Example 51, 1-(4-tert.-butylbenzyl)-2-[(3-chlorophenyl)dimethylaminomethyl]cyclohexanol, hydrochloride] | 99% | 10% | 77% | 99% |  |  |  |  | 
CN(C)C(c1ccccc1)C1CC(c2ccccc2)CCC1(O)Cc1ccccc1.Cl (centres unmarked) [Example 72, 1-benzyl-2-(dimethylaminophenylmethyl)-4-phenylcyclohexanol, hydrochloride] | 89% | 64% | 97% | 99% |  |  |  |  | 
CN(C)C(c1ccccc1Cl)C1CCCCC1(O)Cc1ccccc1Cl.Cl (centres unmarked) [Example 60, 1-(2-chlorobenzyl)-2-[(2-chlorophenyl)dimethylaminomethyl]cyclohexanol, hydrochloride] | 63% | 56% | 79% | 95% |  |  |  |  | 
CCC(O)(CCc1ccccc1)C(C)C(c1ccccc1)N(C)C.Cl (centres unmarked) [Example 59, 1-dimethylamino-3-ethyl-2-methyl-1,5-diphenylpentan-3-ol, hydrochloride] | 59% | 26% | 64% | 86% |  |  |  |  | 
CN(C)C(c1ccccc1Cl)C1CCCCC1(O)Cc1ccccc1.Cl (centres unmarked) [Example 45, 1-benzyl-2-[(2-chlorophenyl)dimethylaminomethyl]cyclohexanol, hydrochloride] | 82% | 89% | 67% | 96% |  |  |  |  | 
CN(C)C(c1ccc(Cl)cc1)C1CCCCC1(O)c1ccc(C(F)(F)F)cc1.Cl (centres unmarked) [Example 62, 2-[(4-chlorophenyl)dimethylaminomethyl]-1-(4-trifluoromethylphenyl)cyclohexanol, hydrochloride] | 94% | 80% | 83% | 93% |  |  |  |  | 
CN(C)C(c1ccc(Br)cc1)C1CCCCC1(O)Cc1ccccc1.Cl (centres unmarked) [Example 61, 1-benzyl-2-[(4-bromophenyl)dimethylaminomethyl]cyclohexanol, hydrochloride] | 90% | 100% | 89% | 98% |  |  |  |  | 
COC(=O)c1ccc(C2(O)CCCCC2C(c2ccccc2)N(C)C)cc1.Cl (centres unmarked) [Example 71, Methyl-4-[2-(dimethylaminophenylmethyl)-1-hydroxycyclohexyl]benzoate, hydrochloride] | 55% | 88% | 74% | 81% |  |  |  |  | 
CN(C)C(c1ccc(F)cc1)C1CCCCC1(O)Cc1ccccc1.Cl (centres unmarked) [Example 41, 1-benzyl-2-[dimethylamino-(4-fluorophenyl)methyl]cyclohexanol, hydrochloride] | 88% | 100% | 87% | 94% |  |  |  |  | 
Cc1ccccc1C(C1CCCCC1(O)c1ccccc1)N(C)C.Cl (centres unmarked) [Example 66, 2-(dimethylamino-o-tolylmethyl)-1-phenylcyclohexanol, hydrochloride] | 91% |  |  |  |  |  | 15% | 65% | 89%
Cl.OC1(Cc2ccccc2)CCCCC1C(c1ccccc1)N1CCCCC1 (centres unmarked) [Example 78, 1-benzyl-2-(phenylpiperidin-1-ylmethyl)cyclohexanol, hydrochloride] | 73% | 84% | 95% | 96% |  |  |  |  | 
CN(C)C(c1ccccc1)C1CCCCC1(O)c1ccc(C(F)(F)F)cc1.Cl (centres unmarked) [Example 79] |  |  | 67% | 93% | 71% | 58% |  |  | 
